Reference: US20260294769A1, “ASCORBIC ACID DERIVATIVES AND COSMETIC THEREOF” (SEIWA KASEI COMPANY, LIMITED, priority 2023, published 2026)

Columns and labels:
[1] = Stability Test-2: residual rate in cream of pH 7 or 9 stored at 50° C.; format: physicochemical
How it was run: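 Each test sample was formulated into a cream adjusted to pH 7 or 9: components (a) and (b) were heated and mixed separately, cooled, and then component (c) was added. The cream was held at 50° C., and the percentage of the sample compound still present (residual rate) was determined after storage.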

[2] = Stability Test-2: odor of cream stored at 50° C.; format: physicochemical; settings: 10 panelists
How it was run: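 Test creams were made by heating and mixing components (a) and (b), cooling, then adding component (c) to give a pH of 7 or 9. After storage at 50° C., 10 panelists scored odor: 3 almost odorless, 2 slight strange odor, 1 strong odor. Totals were graded ◯ (25 or more), Δ (16-24) or x (15 or less).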

[3] = Stability Test-2: coloration of cream stored at 50° C.; format: physicochemical; settings: 10 panelists
How it was run: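 Creams were made by heating and mixing parts (a) and (b), cooling, then adding part (c), adjusting pH to 7 or 9. After storage at 50° C., ten panelists scored coloration against the freshly prepared cream: 3 for almost no change, 2 for color change, 1 for strong coloration.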

[4] = system: Normal human dermal fibroblasts; assay: Collagen production promoting effect (ELISA of free collagen in supernatant); format: cell-based; settings: 10 mM or less, 48 hours, control group set to 100%, N=3
Protocol: Normal human dermal fibroblasts were prepared in D-MEM containing 5% (v/v) fetal bovine serum to a cell density of 2.5×10^4 cells/well, and then pre-incubated for 24 hours on a 96-well plate. After removing the medium, samples prepared to a predetermined concentration in D-MEM containing 5% (v/v) fetal bovine serum were added to each well and cultured for 48 hours. After the culture was completed, the amount of free collagen in the supernatant was quantified by ELISA. Measurements were performed in triplicate (N=3).
The amount of collagen produced when the sample was measured at a concentration of 10 mM or less was compared with that of the control group, and the results (% values when the control group was set to 100%) are shown in Table 17 based on the following criteria.

[5] = system: Normal human dermal fibroblasts (NHDF); assay: Hyaluronic acid production promoting effect (ELISA of hyaluronic acid in supernatant); format: cell-based; settings: 10 mM or less, 48 hours, control group set to 100%, N=3
How it was run: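 NHDF seeded at 2.5×10^4 cells/well in D-MEM with 5% FBS, pre-incubated 24 h, then exposed to samples in serum-free D-MEM for 48 h. Supernatant hyaluronic acid measured by ELISA in triplicate, expressed as % of control (100%) at ≤10 mM sample.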

[6] = system: Normal human epidermal keratinocytes; assay: Antioxidant effect: ROS production inhibition rate (DCFHDA, H2O2); format: cell-based; settings: 10 mM or less, 24 hours incubation, 0.2 mM H2O2, N=4
Protocol: Normal human epidermal keratinocytes were seeded onto a 96-well plate using KG2 medium at a cell density of 2.0×10^4 cells/well. After 24 hours of pre-incubation, samples adjusted to a predetermined concentration in KG2 medium were added to each well. After 24 hours of incubation, the medium was removed, followed by washing with HBSS(−) and the incorporation of the ROS-reactive fluorescent probe DCFHDA for 30 minutes. The cells were again washed with HBSS(−), treated with 0.2 mM H2O2, and incubated for 2 hours. The fluorescence intensity was measured, and the amount of ROS produced per unit protein was calculated by dividing the fluorescence intensity by the amount of protein quantified by the BCA method, resulting in an analytical value of 1. Furthermore, the amount of ROS production calculated without adding the sample adjusted to a predetermined concentration using the above test method was set to analytical value 2; and the amount of ROS production calculated without adding the sample or 0.2 mM H2O2 was set to analytical value 3.
ROS production inhibition rate (%) was calculated using the following formula. The higher the ROS production inhibition rate, the greater the antioxidant effect can be evaluated to be.
The ROS production inhibition rate when the sample was measured at a concentration of 10 mM or less was evaluated as follows. Note that the measurement was performed in N=4.

[7] = cream pH 7, 50° C., after 2 weeks, 20160 min
[8] = cream pH 7, 50° C., after 4 weeks, 40320 min
[9] = cream pH 9, 50° C., after 2 weeks, 20160 min
[10] = cream pH 9, 50° C., after 4 weeks, 40320 min

In the case of `CCCC(=O)OCC(OC(=O)CCC)C1OC(=O)C2=C1OCCCCO2` (stereo not shown) [Synthesis Example 10, 5,6-O-dibutanoyl-2,3-O-(1,4-butanediyl) ascorbic acid], the “Residual Rate” value [1, 7] is reported as “⊚ (95% or more)”, the “Residual Rate” value [1, 8] is reported as “⊚ (95% or more)” and the “Residual Rate” value [1, 9] is reported as “⊚ (95% or more)”. For the same compound, the “Residual Rate” value [1, 10] was “⊚ (95% or more)”, the Odor ([2]; after 2 weeks) was “◯ (Total score of 10 panelists is 25 or more)” and the Odor ([2]; after 4 weeks) was “Δ (Total score of 10 panelists is 16-24)”. The Coloration ([3]; after 2 weeks) was “◯ (Total score of 10 panelists is 25 or more)”, the Coloration ([3]; after 4 weeks) was “◯ (Total score of 10 panelists is 25 or more)” and the Collagen production-promoting effect [4] was “++ (140%<)”. The “Hyaluronic acid production-promoting effect” value [5] was “++ (120%<)” and the “Antioxidant effect (ROS production inhibition rate)” value [6] was “+ (<20%)”.
In the case of `CCCCCCCCCCCC(=O)OCC(O)C1OC(=O)C2=C1OCCCCO2` (stereo not shown) [Synthesis Example 13, 6-O-lauroyl-2,3-O-(1,4-butanediyl) ascorbic acid], the “Residual Rate” value [1, 7] is reported as “⊚ (95% or more)”, the “Residual Rate” value [1, 8] is reported as “⊚ (95% or more)” and the “Residual Rate” value [1, 9] is reported as “⊚ (95% or more)”. For the same compound, the “Residual Rate” value [1, 10] was “⊚ (95% or more)”, the Odor ([2]; after 2 weeks) was “◯ (Total score of 10 panelists is 25 or more)” and the Odor ([2]; after 4 weeks) was “Δ (Total score of 10 panelists is 16-24)”. For the same compound, the Coloration ([3]; after 2 weeks) was “◯ (Total score of 10 panelists is 25 or more)”, the Coloration ([3]; after 4 weeks) was “◯ (Total score of 10 panelists is 25 or more)” and the “Hyaluronic acid production-promoting effect” value [5] was “++ (120%<)”. The “Antioxidant effect (ROS production inhibition rate)” value [6] was “+ (<20%)”.
With `CCCCCCCCCCCC(=O)OCC(OC(=O)CCCCCCCCCCC)C1OC(=O)C2=C1OCCCCO2` (stereo not shown) [Synthesis Example 14, 5,6-O-dilauroyl-2,3-O-(1,4-butanediyl) ascorbic acid] the “Residual Rate” value [1, 7] was “⊚ (95% or more)”, the “Residual Rate” value [1, 8] was “⊚ (95% or more)” and the “Residual Rate” value [1, 9] was “⊚ (95% or more)”. For the same compound, the “Residual Rate” value [1, 10] was “∘ (85% or more, less than 95%)”, the Odor ([2]; after 2 weeks) was “◯ (Total score of 10 panelists is 25 or more)” and the Odor ([2]; after 4 weeks) was “Δ (Total score of 10 panelists is 16-24)”. The Coloration ([3]; after 2 weeks) was “◯ (Total score of 10 panelists is 25 or more)”, the Coloration ([3]; after 4 weeks) was “◯ (Total score of 10 panelists is 25 or more)” and the “Hyaluronic acid production-promoting effect” value [5] was “++ (120%<)”. The “Antioxidant effect (ROS production inhibition rate)” value [6] was “+ (<20%)”.
For `CC(C)CCCCCCCCCCCCCCC(=O)OC[C@H](O)[C@H]1OC(=O)C2=C1OCCCCO2` [Synthesis Example 17, 6-O-isostearoyl-2,3-O-(1,4-butanediyl) ascorbic acid], the “Residual Rate” value [1, 7] was “⊚ (95% or more)”, the “Residual Rate” value [1, 8] was “⊚ (95% or more)” and the “Residual Rate” value [1, 9] was “⊚ (95% or more)”. For the same compound, the “Residual Rate” value [1, 10] was “⊚ (95% or more)”, the Odor ([2]; after 2 weeks) was “◯ (Total score of 10 panelists is 25 or more)” and the Odor ([2]; after 4 weeks) was “Δ (Total score of 10 panelists is 16-24)”. For the same compound, the Coloration ([3]; after 2 weeks) was “◯ (Total score of 10 panelists is 25 or more)”, the Coloration ([3]; after 4 weeks) was “◯ (Total score of 10 panelists is 25 or more)” and the Collagen production-promoting effect [4] was “++ (140%<)”. For the same compound, the “Hyaluronic acid production-promoting effect” value [5] was “++ (120%<)” and the “Antioxidant effect (ROS production inhibition rate)” value [6] was “+ (<20%)”.
With `CCCCCCCC(=O)OCC(OC(=O)CCCCCCC)C1OC(=O)C2=C1OCCCO2` (stereo not shown) [Synthesis Example 23, 5,6-O-dioctanoyl-2,3-O-(1,3-propanediyl) ascorbic acid] the “Residual Rate” value [1, 7] was “⊚ (95% or more)”, the “Residual Rate” value [1, 8] was “⊚ (95% or more)” and the “Residual Rate” value [1, 9] was “⊚ (95% or more)”. For the same compound, the “Residual Rate” value [1, 10] was “⊚ (95% or more)”, the Odor ([2]; after 2 weeks) was “◯ (Total score of 10 panelists is 25 or more)” and the Odor ([2]; after 4 weeks) was “Δ (Total score of 10 panelists is 16-24)”. For the same compound, the Coloration ([3]; after 2 weeks) was “◯ (Total score of 10 panelists is 25 or more)”, the Coloration ([3]; after 4 weeks) was “◯ (Total score of 10 panelists is 25 or more)” and the Collagen production-promoting effect [4] was “++ (140%<)”. The “Antioxidant effect (ROS production inhibition rate)” value [6] was “+ (<20%)”.
